The target of assay [1] is DNA polymerase beta (Homo sapiens, UniProt P06746). As to the kind of experiment: Inhibition of human recombinant DNA polymerase beta assessed as fluorescein-12-dCTP incorporation by fluorimetry.
The test system of assay [2] is Human immunodeficiency virus. As to the kind of experiment: Inhibition of HIV reverse transcriptase at 50 uM.

Usually IC50 stands for the point on the concentration scale where inhibition reaches its midpoint.

Calls of active or inactive are those of the source. The calls are words filed in the database; no cut-off is given here.

`CCC(C)C(=O)C1=C(O)OC2=C(C(CC(=O)O)c3ccccc3)C(C)(C)C(CC=C(C)C)CC2(CC=C(C)C)C1=O` (stereo not given) [MAHUREONE B]: the concentration for half-maximal inhibition (IC50) in assay [1] was 73 µM.

As for `CCCC(CC(=O)O)C1=C2OC(O)=C(C(=O)C(C)CC)C(=O)C2(CC=C(C)C)CC(CC=C(C)C)C1(C)C` (stereo not given) [MAHUREONE E], in assay [1], the IC50 turned out to be 342 µM.

For `CC(C)=CCC1CC2(CC=C(C)C)C(=O)C(C(=O)C(C)C)=C(O)OC2=C(C(CC(=O)O)c2ccccc2)C1(C)C` (stereo not given), in assay [1], the result was inactive.

For the compound `CCCC(CC(=O)O)C1=C2OC(O)=C(C(=O)CC(C)C)C(=O)C2(CC=C(C)C)CC(CC=C(C)C)C1(C)C` (stereo not given) [MAHUREONE D], in assay [1], the IC50 is 12 µM.

Consider `CCC(C)C(=O)C1=C(O)OC2=C(C(CC(=O)O)c3ccccc3)C(C)(C)C(CCC(C)(C)NC(C)=O)CC2(CC=C(C)C)C1=O` (stereo not given), for which the result in assay [1] was inactive.

For the compound `Nc1ccn([C@H]2CC[C@@H](COP(=O)(O)OP(=O)(O)OP(=O)(O)O)O2)c(=O)n1` [ddCTP SODIUM], in assay [1], the half-inhibitory concentration (IC50) amounted to 1.3 µM.

For the compound `CC(C)=CCC1CC2(CC=C(C)C)C(=O)C(C(=O)CC(C)C)=C(O)OC2=C(C(CC(=O)O)c2ccccc2)C1(C)C` (stereo not given) [MAHUREONE A], the IC50 in assay [1] is 28 µM. For the same compound, the fold change (FC) in assay [2] was found to be 2.

Turning to `CCC(C)C(=O)C1=C(O)OC2=C(C(CC(=O)O)c3ccccc3)C(C)(C)C(CCC(C)(C)O)CC2(CC=C(C)C)C1=O` (stereo not given), the outcome in assay [1] was inactive.

On to `CCC(C)C(=O)C1=C(O)OC2=C(C(CC(=O)O)c3ccccc3)C(C)(C)C(CCC(C)(C)OC(=O)C(F)(F)F)CC2(CC=C(C)C)C1=O` (stereo not given), for which the outcome in assay [1] was inactive.

These data come from ChEMBL document CHEMBL1158801, “Acylphloroglucinol derivatives from Mahurea palustris” (J Nat Prod, 2005).
